Measurements taken from US8026243B2, “[4,5′]Bipyrimidinyl-6,4′-diamine derivatives as protein kinase inhibitors” (Novartis AG, priority 2006, dated 2011).

These molecules were tested against T1, Ba/F3-TEL-FGFR3 cells (Homo sapiens, UniProt P22607) (assay: FGFR3 cellular assay: proliferation of transformed Ba/F3-TEL-FGFR3 cells (AlamarBlue)). Details: 48 hours incubation, class symbols.
T1 construct: fused on or other part: The N-terminal oligomerising part of TEL (ETV6) is fused before the intracellular kinase part of FGFR3; P41212 (Transcription factor ETV6)
T1 sequence (P22607 whole entry, change not shown, the tested form may be a part): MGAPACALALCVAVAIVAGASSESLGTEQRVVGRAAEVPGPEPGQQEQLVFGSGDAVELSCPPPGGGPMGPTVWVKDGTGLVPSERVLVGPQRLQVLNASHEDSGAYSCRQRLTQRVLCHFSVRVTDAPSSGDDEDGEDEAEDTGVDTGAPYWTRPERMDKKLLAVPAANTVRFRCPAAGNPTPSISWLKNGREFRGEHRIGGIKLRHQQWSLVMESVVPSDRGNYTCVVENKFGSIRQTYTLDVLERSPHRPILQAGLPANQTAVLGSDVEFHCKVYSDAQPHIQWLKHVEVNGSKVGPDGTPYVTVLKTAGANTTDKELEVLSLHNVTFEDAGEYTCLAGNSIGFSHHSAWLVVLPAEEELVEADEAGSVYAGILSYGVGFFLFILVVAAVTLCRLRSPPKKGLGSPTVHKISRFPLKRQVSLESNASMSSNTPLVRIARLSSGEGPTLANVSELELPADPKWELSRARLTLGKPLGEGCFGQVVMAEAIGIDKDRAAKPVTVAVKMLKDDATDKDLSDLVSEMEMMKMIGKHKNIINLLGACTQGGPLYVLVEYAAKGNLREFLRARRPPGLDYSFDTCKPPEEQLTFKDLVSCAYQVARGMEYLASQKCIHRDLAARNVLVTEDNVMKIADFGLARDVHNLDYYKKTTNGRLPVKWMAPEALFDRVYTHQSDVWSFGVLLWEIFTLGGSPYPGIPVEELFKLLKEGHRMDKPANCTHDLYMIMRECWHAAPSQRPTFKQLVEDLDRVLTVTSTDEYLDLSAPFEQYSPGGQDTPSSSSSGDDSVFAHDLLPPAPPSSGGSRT
Type: cell-based
Method in brief: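 Ba/F3-TEL-FGFR3 cells (5000/well) in RPMI 1640 with 10% FBS, exposed to twelve-point 1:3 compound dilutions for 48 h. Proliferation read by AlamarBlue (10% final, 4 h at 37 °C), fluorescence Ex530/Em580; IC50 from linear regression of percent inhibition.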

Row | GI50 [nM] | SMILES
1 | < 100 | COc1cc(OC)c(Cl)c(Nc2ncncc2-c2cc(Nc3ccc(CN4CCN(C(=O)CO)CC4)cn3)ncn2)c1Cl [Compound 87, 1-(4-{6-[4′-(2,6-Dichloro-3,5-dimethoxy-phenylamino)-[4,5′]bipyrimidinyl-6-ylamino]-pyridin-3-ylmethyl}-piperazin-1-yl)-2-hydroxy-ethanone]
2 | < 100 | COc1cc(OC)c(Cl)c(Nc2ncncc2-c2cc(Nc3ccc(CN4CCN(C(=O)CO)CC4)cn3)ncn2)c1F [Compound 88, 1-(4-{6-[4′-(2-Chloro-6-fluoro-3,5-dimethoxy-phenylamino)-[4,5′]bipyrimidinyl-6-ylamino]-pyridin-3-ylmethyl}-piperazin-1-yl)-2-hydroxy-ethanone]
3 | < 100 | COc1cc(OC)c(F)c(Nc2ncncc2-c2cc(Nc3ccc(CN4CCN(C(=O)CO)CC4)cn3)ncn2)c1F [Compound 89]
4 | < 100 | COc1cc(Nc2ncncc2-c2cc(Nc3ccc(CN4CCN(C(=O)CO)CC4)cn3)ncn2)c(F)c(OC)c1 [Compound 90]
5 | < 100 | COc1cc(OC)c(Cl)c(Nc2nc(C)ncc2-c2cc(Nc3ccc(CN4CCOCC4)cn3)ncn2)c1F [Compound 91, N4′-(2-Chloro-6-fluoro-3,5-dimethoxy-phenyl)-2′-methyl-N6-(5-morpholin-4-ylmethyl-pyridin-2-yl)-[4,5′]bipyrimidinyl-6,4′-diamine]
6 | < 100 | COc1cc(C(=O)Nc2cccc(C(F)(F)F)c2)c(Cl)c(Nc2ncncc2-c2cc(Nc3ccc(CN4CCOCC4)cn3)ncn2)c1Cl [Compound 92, 2,4-dichloro-5-methoxy-3-(6-(5-(morpholinomethyl)pyridin-2-ylamino)-4,5′-bipyrimidin-4′-ylamino)-N-(3-(trifluoromethyl)phenyl)benzamide]
7 | < 100 | CCN1CCN(Cc2ccc(NC(=O)c3cc(OC)c(Cl)c(Nc4ncncc4-c4cc(Nc5ccc(CN6CCOCC6)cn5)ncn4)c3Cl)cc2C(F)(F)F)CC1 [Compound 93, 2,4-dichloro-N-(4-((4-ethylpiperazin-1-yl)methyl)-3-(trifluoromethyl)phenyl)-5-methoxy-3-(6-(5-(morpholinomethyl)pyridin-2-ylamino)-4,5′-bipyrimidin-4′-ylamino)benzamide]
8 | < 100 | COc1cc(OC)c(Cl)c(Nc2nccnc2-c2cc(Nc3ccc(CN4CCOCC4)cn3)ncn2)c1Cl [Compound 94, {6-[3-(2,6-Dichloro-3,5-dimethoxy-phenylamino)-pyrazin-2-yl]-pyrimidin-4-yl}-(5-morpholin-4-ylmethyl-pyridin-2-yl)-amine]
9 | < 100 | COc1cc(OC)c(Cl)c(Nc2nccnc2-c2cc(Nc3ccc(CN4CCOCC4)cn3)ncn2)c1F [Compound 95, {6-[3-(2-chloro-3,5-dimethoxy-6-fluoro phenylamino)-pyrazin-2-yl]-pyrimidin-4-yl}-(5-morpholin-4-ylmethyl-pyridin-2-yl)-amine]
10 | < 100 | COc1cc(OC)c(Cl)c(Nc2nccnc2-c2cc(Nc3cc(CN4CCOCC4)ccn3)ncn2)c1Cl [Compound 96, {6-[3-(2,6-Dichloro-3,5-dimethoxy-phenylamino)-pyrazin-2-yl]-pyrimidin-4-yl}-(4-morpholin-4-ylmethyl-pyridin-2-yl)-amine]
11 | < 100 | COc1cc(OC)c(Cl)c(Nc2nccnc2-c2cc(Nc3cc(CN4CCOCC4)ccn3)ncn2)c1F [Compound 97, {6-[3-(2-chloro-3,5-dimethoxy-6-fluoro phenylamino)-pyrazin-2-yl]-pyrimidin-4-yl}-(4-morpholin-4-ylmethyl-pyridin-2-yl)-amine]
12 | < 100 | COc1cc(OC)c(Cl)c(Nc2nccnc2-c2cc(Nc3ccc(CN4CCN(CCO)CC4)cn3)ncn2)c1Cl [Compound 100]
13 | < 100 | COc1cc(OC)c(Cl)c(Nc2nccnc2-c2cc(Nc3ccc(CN4CCN(C(=O)CO)CC4)cn3)ncn2)c1Cl [Compound 101]
14 | < 100 | COc1cc(OC)c(Cl)c(Nc2nccnc2-c2cc(Nc3ccc(C(C)O)cn3)ncn2)c1Cl (stereo not shown) [Compound 102, {6-[3-(2,6-Dichloro-3,5-dimethoxy-phenylamino)-pyrazin-2-yl]-pyrimidin-4-yl}-(5-[1-hydroxyethyl]-pyridin-2-yl)-amine]
15 | < 100 | COc1ccc(F)c(Nc2nccnc2-c2cc(Nc3ccc(CN4CCOCC4)cn3)ncn2)c1F [Compound 104, {6-[3-(2,6-Difluoro-3-methoxy-phenylamino)-pyrazin-2-yl]-pyrimidin-4-yl}-N-(5-(morpholin-4-ylmethyl)-pyridin-2-yl)-amine]
16 | < 100 | COc1ccc(F)c(Nc2nccnc2-c2cc(Nc3cc(CN4CCOCC4)ccn3)ncn2)c1F [Compound 105, {6-[3-(2,6-Difluoro-3-methoxy-phenylamino)-pyrazin-2-yl]-pyrimidin-4-yl}-(4-(morpholin-4-ylmethyl)-pyridin-2-yl)-amine]
17 | < 100 | Nc1cc(-c2nccnc2Nc2c(Cl)cccc2Cl)ncn1 [Compound 106, 6-(3-(2,6-dichlorophenylamino)pyrazin-2-yl)pyrimidin-4-amine]

Same assay, conditions: 48 hours incubation, given as bound

Row | GI50 [nM] | SMILES
18 | > 500 | COc1ccc(F)c(Nc2nccnc2-c2cc(N)ncn2)c1F [Compound 103, {6-[3-(2,6-Difluoro-3-methoxy-phenylamino)-pyrazin-2-yl]-pyrimidin-4-yl}-amine]
19 | > 500 | Clc1cccc(Cl)c1Nc1nccnc1-c1cc(Nc2ccc(CN3CCOCC3)cn2)ncn1 [Compound 107, 6-(3-(2,6-dichlorophenylamino)pyrazin-2-yl)-N-(5-(morpholinomethyl)pyridin-2-yl)pyrimidin-4-amine]
